Results on 4 compounds are retold here after PMC6941823, “A dispensable paralog of succinate dehydrogenase subunit C mediates standing resistance towards a subclass of SDHI fungicides in Zymoseptoria tritici” (PLoS Pathogens, 2019).

Where two headings read alike, the source gives them in different places.

The target in assay [1] is SQR of 06STD024 (SDHC / altC) mitochondria (Zymoseptoria tritici, UniProt A0A1X7RQW2+F9X9V6+F9XH52+O42772). In words: Succinate-quinone (SQR) SDHI sensitivity assay on purified mitochondria, 06STD024. Format: biochemical. The conditions noted are these: for RF (resistance factor), 06STD024 (SDHC / altC): IC50 ratio compared to IPO323 values; for IC50: mitochondria of field isolate 06STD024, mean of three ± SD. How it is done: (§1) Succinate-ubiquinone oxidoreductase (SQR) inhibition assays were performed on mitochondrial extracts from a panel of strains that were (i) either carrying a unique C-subunit encoding gene (ZtSDHC1, ZtSDHC1_A84I or Zt-SDHC3), or (ii) carrying two C-subunit encoding genes ZtSDHC1 and ZtSDHC3 (Table 1).
(§2) Biomass production, mitochondrial extraction and purification were performed as described in [14]. Succinate: ubiquinone/DCPIP sensitivity tests were performed as described in [14] with minor modification.

The target of assay [2] is SQR (SDHC / altC) of IPO323 pTet::SDHC3 transformant, repressed (Zymoseptoria tritici, UniProt A0A1X7RQW2+F9X9V6+F9XH52+O42772). In words: Succinate-quinone (SQR) SDHI sensitivity assay on purified mitochondria, IPO323 pTet::SDHC3 repressed. Type of assay: biochemical. The conditions noted are these: for RF (resistance factor), pTet Repressed (SDHC / altC): IC50 ratio compared to IPO323 values; for IC50: IPO323 pTet::SDHC3 transformant grown in presence of 30 mg.L^-1 doxycycline, mean of three ± SD. How it is done: as §1, §2
Sequence of SQR (SDHC / altC) of IPO323 pTet::SDHC3 transformant, repressed (F9XH52 44-187): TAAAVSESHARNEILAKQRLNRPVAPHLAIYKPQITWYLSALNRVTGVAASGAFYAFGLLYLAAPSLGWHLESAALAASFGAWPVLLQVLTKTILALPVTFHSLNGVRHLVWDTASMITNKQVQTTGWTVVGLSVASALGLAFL
Sequence of SQR (SDHC / altC) of IPO323 pTet::SDHC3 transformant, repressed (O42772 20-297): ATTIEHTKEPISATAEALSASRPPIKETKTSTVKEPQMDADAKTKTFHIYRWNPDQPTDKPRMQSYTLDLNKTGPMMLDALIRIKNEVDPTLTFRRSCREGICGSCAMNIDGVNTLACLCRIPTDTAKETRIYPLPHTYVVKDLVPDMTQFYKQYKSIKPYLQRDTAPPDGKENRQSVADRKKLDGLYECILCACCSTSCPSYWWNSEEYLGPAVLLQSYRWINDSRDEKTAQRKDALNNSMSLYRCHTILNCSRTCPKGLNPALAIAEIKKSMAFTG
Sequence of SQR (SDHC / altC) of IPO323 pTet::SDHC3 transformant, repressed (F9X9V6 1-193): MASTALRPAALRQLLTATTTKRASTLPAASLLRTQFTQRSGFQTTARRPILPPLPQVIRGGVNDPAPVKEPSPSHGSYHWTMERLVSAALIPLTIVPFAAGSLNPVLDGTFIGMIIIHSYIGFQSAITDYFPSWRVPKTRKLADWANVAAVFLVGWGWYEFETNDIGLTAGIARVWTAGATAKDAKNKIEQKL
Sequence of SQR (SDHC / altC) of IPO323 pTet::SDHC3 transformant, repressed (A0A1X7RQW2 36-181): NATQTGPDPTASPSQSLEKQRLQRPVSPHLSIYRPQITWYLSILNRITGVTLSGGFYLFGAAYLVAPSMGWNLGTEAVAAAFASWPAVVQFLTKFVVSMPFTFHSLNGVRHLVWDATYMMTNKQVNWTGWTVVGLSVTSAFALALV
Sequence of SQR (SDHC / altC) of IPO323 pTet::SDHC3 transformant, repressed (F9WWR1 41-643 partner): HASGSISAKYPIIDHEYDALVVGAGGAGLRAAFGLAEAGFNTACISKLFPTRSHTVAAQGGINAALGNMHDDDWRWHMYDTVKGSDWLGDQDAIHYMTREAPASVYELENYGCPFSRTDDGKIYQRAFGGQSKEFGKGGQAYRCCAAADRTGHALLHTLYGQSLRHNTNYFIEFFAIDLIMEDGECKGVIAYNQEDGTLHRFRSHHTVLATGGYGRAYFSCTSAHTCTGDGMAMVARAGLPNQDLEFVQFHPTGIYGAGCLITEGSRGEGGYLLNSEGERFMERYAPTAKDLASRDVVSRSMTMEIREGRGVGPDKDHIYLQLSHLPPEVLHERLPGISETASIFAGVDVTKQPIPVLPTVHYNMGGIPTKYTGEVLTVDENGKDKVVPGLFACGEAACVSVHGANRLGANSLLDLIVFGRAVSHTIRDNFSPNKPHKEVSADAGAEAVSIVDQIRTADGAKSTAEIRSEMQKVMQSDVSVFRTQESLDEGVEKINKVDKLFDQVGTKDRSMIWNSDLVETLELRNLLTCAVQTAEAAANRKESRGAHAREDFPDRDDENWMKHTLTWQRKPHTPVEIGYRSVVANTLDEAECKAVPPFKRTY

Assay [3] addresses SQR (SDHC) of D024 SDHC3 KO mitochondria (Zymoseptoria tritici, UniProt F9X9V6+F9XH52+O42772). In words: Succinate-quinone (SQR) SDHI sensitivity assay on purified mitochondria, 06STD024 SDHC3 KO. Format: biochemical. The conditions noted are these: for RF (resistance factor), D024 SDHC3 KO (SDHC): IC50 ratio compared to IPO323 values; for IC50: mitochondria of 06STD024 ZtSDHC3 deletion mutant, mean of three ± SD. How it is done: as §1
(§3) Biomass production, mitochondrial extraction and purification were performed as described in [14]. Succinate: ubiquinone/DCPIP sensitivity tests were performed as described in [14] with minor modification. The different mitochondrial suspensions were adjusted to similar initial velocity (1 OD595nm hour^-1) and inhibitor concentrations ranged between 0.047nM and 50μM with uniform 4x dilution steps (11 concentrations + DMSO control). Calculated absorbance slopes (OD/min) were used for IC50 calculations using GraphPad Prism 6.07 software non-linear curve fitting against log inhibitor concentrations.

Assay [4] relates to SQR (SDHC / altC) of IPO323 pTet::SDHC3 transformant, induced. The assay can be described thus: Succinate-quinone (SQR) SDHI sensitivity assay on purified mitochondria, IPO323 pTet::SDHC3 induced. Type of assay: biochemical, Zymoseptoria tritici. The conditions noted are these: IPO323 pTet::SDHC3 transformant grown in the absence of doxycycline; mean of three ± SD. The protocol:
as §1, §2

The target in assay [5] is WT-SQR (SDHC), IPO323 mitochondria (Zymoseptoria tritici, UniProt F9X9V6+F9XH52+O42772). The assay can be described thus: Succinate-quinone (SQR) SDHI sensitivity assay on purified mitochondria, IPO323. Type of assay: biochemical. How it is done:
as §1, §3

Assay [6] relates to Zymoseptoria tritici field and genetically modified strains. The assay can be described thus: Liquid culture assay for fungicide sensitivity determination. Format: cell-based. The conditions noted are these: Zymoseptoria tritici, liquid culture sensitivity. The protocol: Sensitivity towards commercial fungicides was determined for a set of 99 SHA-SDHI-naïve Z. tritici field isolates sampled in Europe between 2006 and 2009. The EC50 of these isolates was determined in liquid growth assays and the data obtained compared for each possible pair of SDHI fungicides (cross-resistance (XR) plots, Fig 1). […] Comparative succinate-quinone reductase (SQR) enzyme inhibition tests were performed with mitochondria extracted from a panel of SHA-SDHIs tolerant and sensitive isolates.
In order to characterize in more depth the mechanisms driving sensitivity differences across the isolates, a subset of eight isolates carrying the ZtSDHC3 gene was analyzed for their sensitivity to SDHIs, alt-SDHC expression and splicing patterns. Liquid culture growth sensitivity tests were performed to determine EC50s for this set of isolates towards a wide range of commercial and research SDHIs (S5 Table).
Pre-culture of the inoculum and fungicide sensitivity tests were performed following previously described procedures. Different ranges of inhibitor concentrations were used for population monitoring and for the detailed phenotyping of a selected set of individual field isolates and genetically modified strains. For fungicide sensitivity monitoring of European field populations, final inhibitors concentrations were between 100 mg.L^-1 and 0.0001 mg.L^-1 with uniform 10x dilution steps (7 inhibitor concentrations + DMSO control). For refined sensitivity analysis of a smaller panel of isolates final inhibitor concentrations ranged between 0.5 mM and 0.47 nM with uniform 4x dilution factor steps (11 inhibitor concentrations+ DMSO control).

Assay [7] has as its target altC-SQR (altC) of D024 SDHC1 KO mitochondria (Zymoseptoria tritici, UniProt A0A1X7RQW2+F9X9V6+O42772). In words: Succinate-quinone (SQR) SDHI sensitivity assay on purified mitochondria, 06STD024 SDHC1 KO. Type of assay: biochemical. The conditions noted are these: for RF (resistance factor), D024 SDHC1 KO (altC): IC50 ratio compared to IPO323 values; for IC50: mitochondria of 06STD024 ZtSDHC1 deletion mutant (pure altC-SQR), mean of three ± SD. How it is done: as §1, §2

Assay [8] relates to Zymoseptoria tritici isolates. In words: Growth tests on solid agar at discriminatory fungicide concentrations. Type of assay: cell-based. The conditions noted are these: for Growth phenotype on SDHI-amended plate: AE agar, isofetamid 5 mg.L^-1, 10 DPI (procedure of Fig 6). From the text: Fig 6 Resistance to SHA-SDHIs in Z. tritici EU populations. […] Sensitivity data are sorted by genotype according to the presence of the ZtSDHC3 gene. ** p value of 0.0029 in Welch’s corrected unpaired t-test. (B) Solid agar growth of a collection of 93 Z. tritici isolates sampled in 2009 (same set as above). Individual strains from this collection are boxed and numbered 1 to 93. Boxes A and B correspond to reference resistant strains 06STD024 and 07STGB009 respectively. Box C corresponds to IPO323 reference sensitive isolate. The yellow framed boxes correspond to strains carrying the ZtSDHC3 gene. Yellow arrow designates strain 09STIR20.1 (number 78) carrying a non-functional alt-SDHC (frameshift, S6 Table).
A large scale spotting assay of 96 isolates (Fig 6) was performed using the V&P 96 floating pin tool VP408FP6 (V&P Scientific), equipped with flat tip FP6 pins of 1.58 mm diameter (resulting in approx. 0.4 μl transfer volume). Source cultures for cell spotting were grown in 100 μl YPD liquid medium in a 96 well flat bottom plate (Corning, 3370) at 18°C for 11 days (average cell density of 3.5·10^6/ml), then diluted 1:2x in fresh YPD medium and incubated for another 1.5 h before transfer with the pin tool (approx. 700 cells per spot) onto AE agar with or without fungicide. Plates were incubated at 20°C in the dark for up to 18 days. Smaller scale spotting assays (Figs 4 and 8) were performed using 5 days V8-agar plates inoculums adjusted to 2.10^6 spores.mL^-1 in water and diluted in steps of 3. 2μL of spore suspension was spotted on the plates, and the plates were incubated shielded from light at 21°C for 6 days.

Sequence of WT-SQR (SDHC), IPO323 mitochondria (F9WWR1 entry or part of it): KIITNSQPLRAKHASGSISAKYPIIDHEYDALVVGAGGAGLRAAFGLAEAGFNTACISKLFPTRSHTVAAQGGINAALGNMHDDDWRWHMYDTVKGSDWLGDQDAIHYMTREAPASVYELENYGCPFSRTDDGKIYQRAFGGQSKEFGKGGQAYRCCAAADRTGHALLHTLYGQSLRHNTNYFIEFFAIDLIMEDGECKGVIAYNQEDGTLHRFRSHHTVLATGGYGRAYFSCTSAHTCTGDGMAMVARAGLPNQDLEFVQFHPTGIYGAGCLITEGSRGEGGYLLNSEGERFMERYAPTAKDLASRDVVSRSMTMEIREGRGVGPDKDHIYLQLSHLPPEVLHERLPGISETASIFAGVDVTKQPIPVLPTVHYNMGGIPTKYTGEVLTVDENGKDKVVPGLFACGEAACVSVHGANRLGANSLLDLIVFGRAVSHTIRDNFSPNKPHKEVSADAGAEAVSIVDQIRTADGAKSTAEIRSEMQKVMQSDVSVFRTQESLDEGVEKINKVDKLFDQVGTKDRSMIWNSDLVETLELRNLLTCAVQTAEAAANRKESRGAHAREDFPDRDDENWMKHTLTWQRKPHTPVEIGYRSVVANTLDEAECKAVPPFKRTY
Sequence of WT-SQR (SDHC), IPO323 mitochondria (F9X9V6 entry or part of it): as the sequence (F9X9V6 1-193) above
Sequence of WT-SQR (SDHC), IPO323 mitochondria (O42772 19-297): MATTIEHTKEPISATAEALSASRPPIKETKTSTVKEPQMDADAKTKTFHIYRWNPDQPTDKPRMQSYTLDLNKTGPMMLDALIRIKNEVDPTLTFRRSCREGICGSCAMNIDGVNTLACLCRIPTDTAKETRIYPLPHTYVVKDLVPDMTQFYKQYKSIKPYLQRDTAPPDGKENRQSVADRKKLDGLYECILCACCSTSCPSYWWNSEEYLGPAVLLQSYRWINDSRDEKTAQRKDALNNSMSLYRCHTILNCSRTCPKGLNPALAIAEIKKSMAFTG
Sequence of WT-SQR (SDHC), IPO323 mitochondria (F9XH52 entry or part of it): as the sequence (F9XH52 44-187) above
Sequence of SQR (SDHC) of D024 SDHC3 KO mitochondria (F9XH52 44-187): as above
Sequence of SQR (SDHC) of D024 SDHC3 KO mitochondria (O42772 19-297): as the sequence (O42772 19-297) above
Sequence of SQR (SDHC) of D024 SDHC3 KO mitochondria (F9X9V6 1-193): as the sequence (F9X9V6 1-193) above
Sequence of SQR (SDHC) of D024 SDHC3 KO mitochondria (F9WWR1 29-643 partner): as the sequence (F9WWR1 entry or part of it) above

A word on the IC50: it is the concentration at which inhibition is half-maximal. In general, EC50 refers to the concentration that produces a half-maximal response. In the case of `O=C(Nc1ccccc1-c1ccc(Cl)cc1)c1cccnc1Cl` [Boscalid], in assay [1], the “RF (resistance factor), 06STD024 (SDHC / altC)” value amounted to 3.6. The IC50 in assay [1] came to 61.9 ± 16 nM; in assay [2], 29.8 ± 4 nM; in assay [3], 16.4 ± 2.4 nM; in assay [4], 40.3 ± 2.7 nM; in assay [5], 17 ± 3.7 nM; in assay [7], 54.4 ± 12.9 nM. Also, the “RF (resistance factor), pTet Repressed (SDHC / altC)” value in assay [2] was determined as 1.8. In addition, the “RF (resistance factor), D024 SDHC3 KO (SDHC)” value (shortened to “RF … (SDHC)”) in assay [3] is recorded as 1.0. The half-maximal effective concentration (EC50) in assay [6] (read-out: EC50 (nM) Mean, strain 06STD024) is 1180 nM; in assay [6] (read-out: EC50 (nM) Mean, strain 07STGB009) it was 514 nM; in assay [6] (read-out: EC50 (nM) Mean, strain 09STD041), 644 nM; in assay [6] (read-out: EC50 (nM) Mean, strain 09STD053) it was 512 nM; in assay [6] (read-out: EC50 (nM) Mean, strain 09STF011), 581 nM; in assay [6] (read-out: EC50 (nM) Mean, strain 09STF037), 591 nM. Besides, the EC50 was found to be 720 nM in assay [6] (read-out: EC50 (nM) Mean, strain 09STF112); 798 nM in assay [6] (read-out: EC50 (nM) Mean, strain 09STIR20.3); 3020 nM in assay [6] (read-out: EC50 (nM) Mean, strain Flu21 (SDHC1_A84I)); 384 nM in assay [6] (read-out: EC50 (nM) Mean, strain IPO323); 853 nM in assay [6] (read-out: EC50 (nM) Mean, strain IPO94269); 2160 nM in assay [6] (read-out: EC50 (nM) Mean, strain KO_SDHC1_T1). Besides, the EC50 in assay [6] (read-out: EC50 (nM) Mean, strain KO_SDHC1_T3) was determined as 2050 nM; in assay [6] (read-out: EC50 (nM) Mean, strain KO_SDHC3_T4), 637 nM; in assay [6] (read-out: EC50 (nM) Mean, strain KO_SDHC3_T13), 681 nM; in assay [6] (read-out: EC50 (nM) Mean, strain pTet::SDHC3_I78A_T1), 776 nM; in assay [6] (read-out: EC50 (nM) Mean, strain pTet::SDHC3_I78A_T5), 1680 nM; in assay [6] (read-out: EC50 (nM) Mean, strain pTet::SDHC3_I78A_T15) it was 768 nM. Besides, the EC50 in assay [6] (read-out: EC50 (nM) Mean, strain pTet::SDHC3_I78A_T35) is 270 nM; in assay [6] (read-out: EC50 (nM) Mean, strain pTet::SDHC3_T1) it was 1300 nM; in assay [6] (read-out: EC50 (nM) Mean, strain pTet::SDHC3_T2), 1420 nM; in assay [6] (read-out: EC50 (nM) Mean, strain pTet::SDHC3_T3) it was 1450 nM; in assay [6] (read-out: EC50 (nM) Mean, strain pTet::SDHC3_T7), 1460 nM. The “RF (resistance factor), D024 SDHC1 KO (altC)” value in assay [7] worked out at 3.2.

In the case of `CON(C(=O)c1cn(C)nc1C(F)F)[C@@H](C)Cc1ccc(Cl)cc1Cl` [Compound 3], the IC50 amounted to 26.4 ± 1.2 nM in assay [1], 0.8 ± 0.13 nM in assay [3], 0.7 ± 0.2 nM in assay [5] and 22.7 ± 0.8 nM in assay [7]. In addition, the “RF … (SDHC)” value in assay [3] is reported as 1.2.

Turning to `Cc1cc(OC(C)C)ccc1C(=O)C(C)(C)NC(=O)c1sccc1C` [Isofetamid], in assay [8] (isolate 09STIR20.1 (ZtSDHC3 frameshift), 10 DPI, 5 mg.L^-1), the “Growth on isofetamid-supplemented agar plate” value is on record as “did not grow”. Besides, the “Growth phenotype on SDHI-amended plate” value in assay [8] (strain 06STD024) is “Very strong”; in assay [8] (strain 07STGB009) it was “Very strong”; in assay [8] (strain 09STD041) it was “Strong”; in assay [8] (strain 09STD053), “Strong”; in assay [8] (strain 09STF011), “Strong”; in assay [8] (strain 09STF037), “Weak”. Further, the “Growth phenotype on SDHI-amended plate” value is reported as “Strong” in assay [8] (strain 09STF112), “Weak” in assay [8] (strain 09STIR20.3), “No” in assay [8] (strain IPO323) and “No” in assay [8] (strain IPO94269). The IC50 was 0.9 ± 0.1 nM in assay [5] and above 50000 nM in assay [7].

Take `CC(C)CC(C)c1sccc1NC(=O)c1cn(C)nc1C(F)(F)F` (stereo not shown) [Penthiopyrad]: in assay [1], the “RF (resistance factor), 06STD024 (SDHC / altC)” value is recorded as 1.4. Moreover, the concentration for half-maximal inhibition (IC50) in assay [1] turned out to be 2 ± 0.8 nM; in assay [2] it was 1.9 ± 0.4 nM; in assay [3] it was 1.5 ± 0.3 nM; in assay [4], 1.8 ± 0.1 nM; in assay [5], 1.4 ± 0.3 nM; in assay [7] it was 1.6 ± 0.7 nM. Also, the “RF (resistance factor), pTet Repressed (SDHC / altC)” value in assay [2] turned out to be 1.4. In addition, the “RF … (SDHC)” value in assay [3] stood at 1.1. Further, the “RF (resistance factor), D024 SDHC1 KO (altC)” value in assay [7] was determined as 1.2.
